From the supplement of paper PMC10307832

Experiments:
Assay in all cases: relative viability (nuclei count vs DMSO), 5 days (fraction); higher = more cells survive
Tosedostat + Bortezomib = compound: CC(C)C[C@@H](C(=O)N[C@H](C(=O)OC1CCCC1)c1ccccc1)[C@H](O)C(=O)NO [Tosedostat] + CC(C)C[C@H](NC(=O)[C@H](Cc1ccccc1)NC(=O)c1cnccn1)B(O)O [Bortezomib] (partner 0.002 µM)
Outline: (§1)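 Lung cancer cell lines were pin-tool dosed in 1536-well plates on the day after seeding, with either a lone drug or a fixed anchor-drug dose plus five library-drug doses (not always all listed) in √10 steps. Nuclei were counted on 4× images after 5 days. Relative viability is the ratio of treated-well to vehicle-well nuclei counts, with each value a median of duplicate plates.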

Tosedostat + Dasatinib = compound: CC(C)C[C@@H](C(=O)N[C@H](C(=O)OC1CCCC1)c1ccccc1)[C@H](O)C(=O)NO [Tosedostat] + Cc1nc(Nc2ncc(C(=O)Nc3c(C)cccc3Cl)s2)cc(N2CCN(CCO)CC2)n1 [Dasatinib] (partner 0.075 µM)
Outline: as §1

[1] = compound: CC1=NN=C(O1)C2=NN=C(C=C2)N3CCC(CC3)OC4=C(C=CC(=C4)F)Cl + CC(=O)Nc1cccc(-n2c(=O)n(C3CC3)c(=O)c3c(Nc4ccc(I)cc4F)n(C)c(=O)c(C)c32)c1 [Trametinib] (partner 0.02 µM)
Outline: as §1

[2] = compound: CC1=NN=C(O1)C2=NN=C(C=C2)N3CCC(CC3)OC4=C(C=CC(=C4)F)Cl + COc1cc2c(Oc3ccc(NC(=O)C4(C(=O)Nc5ccc(F)cc5)CC4)cc3F)ccnc2cc1OCCCN1CCOCC1 [Foretinib] (partner 0.25 µM)
Outline: as §1

EPLC-272H
relative viability (Tosedostat + Bortezomib; first compound 0.02 µM): 1.14
relative viability (Tosedostat + Bortezomib; first compound 0.06325 µM): 0.826
relative viability (Tosedostat + Bortezomib; first compound 0.2 µM): 0.738
relative viability (Tosedostat + Bortezomib; first compound 0.6325 µM): 0.67
relative viability (Tosedostat + Bortezomib; first compound 2 µM): 0.574
relative viability (Tosedostat + Dasatinib; first compound 0.02 µM): 0.363
relative viability (Tosedostat + Dasatinib; first compound 0.06325 µM): 0.353
relative viability (Tosedostat + Dasatinib; first compound 0.2 µM): 0.316
relative viability (Tosedostat + Dasatinib; first compound 0.6325 µM): 0.299
relative viability (Tosedostat + Dasatinib; first compound 2 µM): 0.177
relative viability ([1]; first compound 0.253 µM): 0.267
relative viability ([1]; first compound 0.8 µM): 0.247
relative viability ([1]; first compound 2.53 µM): 0.291
relative viability ([1]; first compound 8 µM): 0.309
relative viability ([2]; first compound 0.253 µM): 0.713
relative viability ([2]; first compound 0.8 µM): 0.604
relative viability ([2]; first compound 2.53 µM): 0.638
relative viability ([2]; first compound 8 µM): 0.637
